Measurements taken from patent US11078534B2, “Photocleavable nucleotide reagents with high stability” (Roche Molecular Systems, Inc., priority 2017, dated 2021).

Legend:
[1] = Thermostability study at 65° C. (UPLC-MS); assay type: physicochemical; settings: up to 120 h; for degradation at 65° C. (percentage of starting material and degradation products, peak areas at 260 nm): 300 μM, 40% DMSO, 1.0 M potassium acetate
Experimental: An aqueous mixture was prepared, containing 300 μM dATP-SPh-NPP, 40% DMSO and 1.0 M potassium acetate. For reference another mixture with 300 μM dATP replacing dATP-SPh-NPP was prepared. 150 μL of each mixture were incubated at 65° C. in a Thermoshaker. After 0, 2, 18, 25, and 120 h samples of each solution (20 μL) were analyzed by UPLC-MS (Ultra performance liquid chromatography—mass spectrometry). The peak areas at 260 nm were used to calculate the percentage of starting material and degradation products.

[2] = 5′-hydroxyl protecting group on phosphoramidites; cited from earlier work
polymerase enzyme = experiment: Real-Time PCR (TaqMan PCR) amplification with caged dATP, with and without UV exposure; assay type: biochemical; settings: 400 μM dATP-SPh-NPP instead of dATP, 400 cp target DNA
Experimental: Real-Time PCR (TaqMan® PCR) mixtures with a total volume of 50 μL were prepared by combining three components termed PCR master mixture (20 μL), buffer mixture (20 μL), and dNTP mixture (10 μL). All PCR components were prepared from DEPC water. The PCR master mixture contained tricine buffer (pH 8.2), potassium acetate, glycerol, DMSO, detergent, target DNA (400 cp), polymerase aptamer, probe, primers, SYBR green dye, and polymerase enzyme. The buffer mixture contained manganese acetate (8.3 mM) and imidazole (0, 3.0, or 6.0 mM). The dNTP mixture contained dATP (400 μM), dCTP (400 μM), dGTP (400 μM), and dUTP (800 μM). Another dNTP mixture contained dATP-SPh-NPP (400 μM) instead of dATP. The final concentration of DNA target was 400 cp/reaction.
TaqMan® PCRs of equal composition were positioned on two separate sections of a 96-well plate. Each section contained PCR mixtures with regular dNTPs and PCR mixtures containing dATP-SPh-NPP. Each PCR was prepared as triplicate. One section of the plate was covered with aluminum foil, whereas the other section was exposed to light from an UV-LED lamp (InGaN, Quantum well, λmax=393 nm, 0.18 W/LED) for 8.0 min. at room temperature. […] The analysis of PCR growth curves was performed from fluorescence data collected in the Cy5.5 channel, while analysis of melting curves was based on fluorescence data collected in the FAM channel (465-510 nm).

[3] = Photocleavage by UV-LED irradiation (UPLC-MS); assay type: physicochemical; settings: UV-LED λmax=393 nm
Experimental: Two aqueous mixtures of dATP-SPh-NPP and ATP-DMNPE (300 μM each) were prepared in sodium phosphate buffer (100 mM, pH 7.0). Both samples were irradiated simultaneously with light from an UV-LED lamp (InGaN, Quantum well, λmax=393 nm, 0.18 W/LED) in open vials without shaking or stirring. After 0, 1, 2, 4, 8, and 16 min. the irradiation was shortly paused for sample removal (20 μL) and subsequent UPLC-MS analysis. The peak areas at 260 nm were used to calculate the percentage of starting material and photocleavage products. The molecular identities of the starting materials and cleavage products were confirmed by mass spectrometry.

Row | PCR amplification after UV irradiation (polymerase enzyme; UV light for 8.0 min. at room temperature) | PCR amplification, no UV exposure (polymerase enzyme; no UV exposure) | irradiation time for full cleavage ([3]; 300 μM, 100 mM sodium phosphate buffer pH 7.0) | photocleavage speed compared to ATP-DMNPE ([3]; both irradiated simultaneously, pH 7.0) | dATP released by irradiation ([3]; irradiation for 5 minutes, 300 μM, 100 mM sodium phosphate buffer pH 7.0) | Compound | degradation at 65° C. (percentage of starting material and degradation products, peak areas at 260 nm) [1] | increase in photo-deprotection efficiency compared to conventional NPPOC [2] | thermostability compared to dATP [1]
1 |  |  |  |  |  | Nc1ncnc2c1ncn2[C@H]1C[C@H](O)[C@@H](COP(=O)(O)OP(=O)(O)OP(=O)(O)O)O1 [dATP, reference compound] | quickly degraded to the mono- and diphosphates |  | 
2 |  |  |  |  |  | thiophenyl-2-(2-nitrophenyl)-propoxycarbonyl [SPh-NPPOC] |  | 12 fold | 
3 | leads to DNA amplification | prevents PCR amplification | 8 min | significantly faster | > 90% | thiophenyl o-nitrophenylpropyl dATP [dATP-SPh-NPP] | no degradation products were observed |  | significantly more thermostable than dATP
